Test results reported in patent US8163909B2, “Substituted hydroxyethyl amine compounds as beta-secretase modulators and methods of use” (Amgen Inc., priority 2007, dated 2012).
pIC50: −log10 of the molar value. Like-named read-outs stand apart in the source and are kept apart here.

Columns and labels:
[1] = tested on: Aβ40 in conditioned medium of cells stably expressing Amyloid Precursor Protein (APP); assay: In vitro BACE cell-based assay (Aβ40 in conditioned medium, sandwich ELISA); settings: Homo sapiens; for IC50: IC50's in uM;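 on all read-outs here: compounds added as a dilution series, secreted peptide quantified by europium time-resolved fluorescence readout, potency fitted from percent of control versus compound concentration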
CYP3A4 (CYP3A) = CYP3A4 (CYP3A) (Homo sapiens, UniProt P08684); assay: in vitro; settings: microsomes, pH 7.4;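 further: inhibition of CYP3A-mediated 1-hydroxymidazolam formation after 10 min incubation with NADPH, quantified by HPLC MS relative to metabolite produced without test compound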
[2] = Microsomal stability assay, rat liver microsomes;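 further: rat liver microsomes (0.25 mg/mL) with about 1 µM compound plus 1 mM NADPH, pH 7.4, 37 °C for 30 min, parent left measured by LC-MS/MS against 0 min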
[3] = Microsomal stability assay, human liver microsomes;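 further: pooled human liver microsomes at 0.25 mg/mL with 1 µM compound and NADPH at 37 °C, pH 7.4, for 30 min, unchanged parent quantified by LC-MS/MS against the 0 min sample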
[4] = target: Beta Secretase enzyme (BACE) (Homo sapiens, UniProt P56817); assay: In vitro enzymatic BACE FRET (fluorescence resonance energy transfer) assay; assay type: biochemical; settings: for IC50: IC50's in uM;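 on all read-outs here: fluorescence read after 1 h with 50 nM quenched peptide substrate spanning the BACE cleavage site, in pH 4.2 acetate buffer containing 10% DMSO and nonionic detergent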
CYP2D6 = CYP2D6 (Homo sapiens, UniProt P10635); assay: CYP2D6 inhibition assay (bufuralol, pooled human liver microsomes); settings: for IC50: 2D6 IC50 (uM)
[5] = HEK293, HEK cell-based assay IC50, read-out: HEK cell assay
[6] = BACE enzyme assay IC50, read-out: BACE1 FRET assay
[7] = HEK293, HEK cells, read-out: HEK cell assay (IC50)
[8] = read-out: BACE1 FRET assay (IC50)
[9] = HEK293, HEK cells, read-out: HEK cell assay
[10] = BACE enzyme assay, read-out: BACE1 FRET assay
[11] = HEK293, cell-based assay, HEK cells, read-out: HEK cell assay
[12] = 2D6 IC50, CYP enzyme inhibition
[13] = HEK293, Table 2, HEK cells, read-out: HEK cell assay
[14] = Table 2, read-out: BACE1 FRET assay
[15] = HEK293, HEK cell-based assay, read-out: HEK cell assay

Chain of CYP3A4 (CYP3A) (P08684 2-503): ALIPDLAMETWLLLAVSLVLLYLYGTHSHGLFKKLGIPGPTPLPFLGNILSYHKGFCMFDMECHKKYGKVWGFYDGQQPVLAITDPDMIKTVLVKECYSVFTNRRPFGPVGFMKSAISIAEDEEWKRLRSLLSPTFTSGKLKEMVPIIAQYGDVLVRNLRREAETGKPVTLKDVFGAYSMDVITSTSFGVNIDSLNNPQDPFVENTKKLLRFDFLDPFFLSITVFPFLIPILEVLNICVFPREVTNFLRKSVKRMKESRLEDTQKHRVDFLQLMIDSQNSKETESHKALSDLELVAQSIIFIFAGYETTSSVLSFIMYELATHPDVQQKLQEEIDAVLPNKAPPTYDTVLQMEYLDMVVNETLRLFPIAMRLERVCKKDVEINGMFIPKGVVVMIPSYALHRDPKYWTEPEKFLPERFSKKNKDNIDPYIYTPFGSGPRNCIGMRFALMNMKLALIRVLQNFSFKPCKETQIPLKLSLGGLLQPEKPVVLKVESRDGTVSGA
Chain of CYP2D6 (P10635 whole entry): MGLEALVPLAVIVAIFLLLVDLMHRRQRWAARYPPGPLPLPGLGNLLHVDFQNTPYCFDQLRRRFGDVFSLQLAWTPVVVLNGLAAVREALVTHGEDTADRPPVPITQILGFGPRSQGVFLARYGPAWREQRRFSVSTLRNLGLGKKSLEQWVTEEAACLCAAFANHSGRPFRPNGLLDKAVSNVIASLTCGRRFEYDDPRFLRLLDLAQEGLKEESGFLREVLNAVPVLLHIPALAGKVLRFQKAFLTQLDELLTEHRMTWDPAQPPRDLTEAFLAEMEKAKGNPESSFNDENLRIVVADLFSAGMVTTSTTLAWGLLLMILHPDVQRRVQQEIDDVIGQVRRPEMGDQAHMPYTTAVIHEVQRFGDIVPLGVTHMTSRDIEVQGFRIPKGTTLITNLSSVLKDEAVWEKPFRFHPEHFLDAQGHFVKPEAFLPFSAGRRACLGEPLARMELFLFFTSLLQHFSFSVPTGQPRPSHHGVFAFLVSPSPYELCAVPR
Chain of Beta Secretase enzyme (BACE) (P56817 46-501): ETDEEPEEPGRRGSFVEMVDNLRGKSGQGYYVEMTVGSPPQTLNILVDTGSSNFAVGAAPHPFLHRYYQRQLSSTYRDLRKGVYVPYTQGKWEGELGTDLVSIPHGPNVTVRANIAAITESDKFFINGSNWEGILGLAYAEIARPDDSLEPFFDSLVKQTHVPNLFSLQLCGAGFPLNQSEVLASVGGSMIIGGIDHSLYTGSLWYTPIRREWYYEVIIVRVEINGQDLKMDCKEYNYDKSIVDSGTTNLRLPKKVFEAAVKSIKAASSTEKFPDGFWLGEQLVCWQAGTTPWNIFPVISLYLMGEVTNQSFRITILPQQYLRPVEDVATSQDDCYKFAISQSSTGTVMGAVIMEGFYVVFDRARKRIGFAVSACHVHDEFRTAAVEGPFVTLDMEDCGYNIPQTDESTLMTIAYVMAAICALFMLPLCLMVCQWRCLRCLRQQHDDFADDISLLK

Row | SMILES | pIC50 (CYP3A4 (CYP3A)) | RLM ([2]; rat liver microsomal data) | HLM ([3]; human liver microsomal data) | IC50 (CYP2D6; CYP enzyme inhibition) | IC50 [4, 10] | pIC50 (CYP2D6; [12]) | also measured
1 | COCC(=O)N[C@@H](Cc1cc(F)cc(F)c1)[C@H](O)CN[C@H]1CC2(CCC2)Oc2c1cc(C1CC1)cc2-n1ccnc1 [compound 706] | 7.00 |  |  |  |  |  | pIC50 [1, 5]: 7.70; RLM ([2]; rat liver microsomes): 33 µL/min/mg; HLM ([3]; human liver microsomes): 41 µL/min/mg; pIC50 [4, 6]: 7.21; IC50 (CYP2D6; CYP2D6 inhibition): 0.3 µM
2 | COCC(=O)N[C@@H](Cc1cc(F)cc(F)c1)[C@H](O)CN[C@H]1CC2(CCC2)Oc2c(-c3cncn3C)cc(CC(C)C)cc21 [compound 631] | 7.00 |  |  |  |  |  | pIC50 [1, 7]: 8.40; RLM ([2]; rat liver microsomes): 209 µL/min/mg; HLM ([3]; human liver microsomes): 36 µL/min/mg; pIC50 [4, 8]: 7.72; pIC50 (CYP2D6; 2D6 IC50, CYP2D6 inhibition): 5.41
3 | COCC(=O)N[C@@H](Cc1ccc(F)cc1)[C@H](O)CN[C@H]1CC2(CCC2)Oc2c(-c3ccncc3)cc(CC(C)(C)C)cc21 [compound 562] | 7.00 | 60 µL/min/mg | 24 µL/min/mg | 3.6 µM |  |  | pIC50 [1, 9]: 7.68; pIC50 [4, 10]: 7.57
4 | CO[C@H](C)C(=O)N[C@@H](Cc1cc(F)cc(-c2nccs2)c1)[C@H](O)CN[C@H]1CC2(CCC2)Oc2ncc(Br)cc21 [compound 852] | 6.52 | 156 µL/min/mg | 106 µL/min/mg |  | 0.246 µM | 6.52 | IC50 [1, 11]: 0.094 µM
5 | COCC(=O)N[C@@H](Cc1ccc(F)cc1)[C@H](O)CN[C@H]1CC2(CCC2)Oc2ncc(C(F)(F)C(C)(C)C)cc21 [compound 569] | 6.15 | 423 µL/min/mg | 238 µL/min/mg | ≥ 27 µM |  |  | pIC50 [1, 9]: 6.00; pIC50 [4, 10]: 6.78
6 | COCC(=O)N[C@@H](Cc1cc(F)cc(F)c1)[C@H](O)CN[C@H]1CC2(CCC2)Oc2c1cc(CC(C)(C)C)nc2-c1ccc2c(c1)OCO2 [compound 629] | 5.92 |  |  |  |  |  | pIC50 [1, 7]: 6.92; RLM ([2]; rat liver microsomes): 209 µL/min/mg; HLM ([3]; human liver microsomes): 171 µL/min/mg; pIC50 [4, 8]: 8.05; pIC50 (CYP2D6; 2D6 IC50, CYP2D6 inhibition): ≤ 4.57
7 | CO[C@H](C)C(=O)N[C@@H](Cc1ccccc1)[C@H](O)CN[C@H]1CC2(CCC2)Oc2c1cc(CC(C)(C)C)nc2-c1ccncc1 [compound 543] | 7.00 | 242 µL/min/mg | 41 µL/min/mg | 2.6 µM |  |  | pIC50 [1, 9]: 6.59; pIC50 [4, 10]: 7.43
8 | COCC(=O)N[C@@H](Cc1cc(F)cc(F)c1)[C@H](O)CN[C@H]1CC2(CCC2)Oc2c1cc(CC(C)C)cc2-n1ccnc1 [compound 458] | 7.00 | 188.5 µL/min/mg | 25.5 µL/min/mg |  |  | 6.05 | pIC50 [1, 13]: 7.92; pIC50 [4, 14]: 7.77
9 | CCC(=O)N[C@@H](Cc1cc(F)cc(-c2nccs2)c1)[C@H](O)CN[C@H]1CC2(CCC2)Oc2ncc(CC(C)(C)C)cc21 [compound 860] | 6.70 | 69 µL/min/mg | 62 µL/min/mg |  | 0.004 µM | 6.52 | IC50 [1, 11]: 0.015 µM
10 | C#Cc1cc(C[C@H](NC(=O)COC)[C@H](O)CN[C@H]2CC3(CCC3)Oc3ncc(CC(C)C)cc32)ccc1F [compound 780, N-((1S,2R)-1-(3-ethynyl-4-fluorobenzyl)-2-hydroxy-3-(((4′S)-6′-(2-methylpropyl)-3′,4′-dihydrospiro[cyclobutane-1,2′-pyrano[2,3-b]pyridin]-4′-yl)amino)propyl)-2-methoxyacetamide] | 7.00 | 74 µL/min/mg | 61 µL/min/mg |  | 0.01 µM |  | IC50 [1, 15]: 0.032 µM; pIC50 (CYP2D6): 5.85
11 | CC(=O)N[C@@H](Cc1cc(F)cc(-c2cscn2)c1)[C@H](O)CN[C@H]1CC2(CCC2)Oc2ncc(CC(C)(C)C)cc21 [compound 672] | 6.40 |  |  |  |  |  | pIC50 [1, 5]: 8.30; RLM ([2]; rat liver microsomes): 134 µL/min/mg; HLM ([3]; human liver microsomes): 358 µL/min/mg; pIC50 [4, 6]: 8.40; IC50 (CYP2D6; CYP2D6 inhibition): 2.7 µM
12 | Cc1nc(CN2CCO[C@H](C(=O)N[C@@H](Cc3ccc(F)cc3)[C@H](O)CN[C@H]3CC4(CCC4)Oc4ncc(CC(C)(C)C)cc43)C2)cs1 [compound 762] | 6.52 | 522 µL/min/mg | 297 µL/min/mg | 2.6 µM | 0.037 µM |  | IC50 [1, 15]: 0.037 µM
13 | COCC(=O)N[C@@H](Cc1ccc(F)cc1)[C@H](O)CN[C@H]1CC2(CCC2)Oc2c1cc(CC(C)(C)C)nc2-c1nccs1 [compound 451] | 6.22 | 682 µL/min/mg | 248 µL/min/mg |  |  | 5.03 | pIC50 [1, 13]: 6.57; pIC50 [4, 14]: 7.72
14 | COCC(=O)N[C@@H](Cc1ccc2c(c1)OCO2)[C@H](O)CN[C@H]1CC2(CCC2)Oc2nc(F)c(CC(C)(C)C)cc21 [compound 485] | 7.00 | 106 µL/min/mg | 43 µL/min/mg |  |  | 5.77 | pIC50 [1, 13]: 6.42; pIC50 [4, 14]: 6.92
15 | COCC(=O)N[C@@H](Cc1cccc(-n2cccn2)c1)[C@H](O)CN[C@H]1CC2(CCC2)Oc2ncc(CC(C)(C)C)cc21 [compound 854] | 6.22 | 210 µL/min/mg | 515 µL/min/mg |  | 0.007 µM | 5.60 | IC50 [1, 11]: 0.007 µM
16 | CC(C)Cc1cnc2c(c1)[C@@H](NC[C@@H](O)[C@H](Cc1ccc3c(c1)OCO3)NC(=O)[C@@H]1CCCO1)CC1(CCC1)O2 [compound 548] | 6.52 | 184 µL/min/mg | 57 µL/min/mg | 3.7 µM |  |  | pIC50 [1, 9]: 6.21; pIC50 [4, 10]: 7.13
17 | CC(=O)N[C@@H](Cc1ccc(F)cc1)[C@H](O)CN[C@H]1CC2(CCC2)Oc2c1cc(CC(C)(C)C)nc2NC1CCC1 [compound 497] | 5.48 | 172 µL/min/mg | 157 µL/min/mg | 2.6 µM |  |  | pIC50 [1, 9]: 7.00; pIC50 [4, 10]: 7.11
18 | CO[C@H](C)C(=O)N[C@@H](Cc1cccc(F)c1)[C@H](O)CN[C@H]1CC2(CCC2)Oc2c(Br)cc(CC(C)C)cc21 [compound 515] | 5.89 | 399 µL/min/mg | 775 µL/min/mg | 9.4 µM |  |  | pIC50 [1, 9]: 6.90; pIC50 [4, 10]: 8.52
19 | CO[C@H](C)C(=O)N[C@@H](Cc1cc(F)cc(-c2nccs2)c1)[C@H](O)CN[C@H]1CC2(CCC2)Oc2ncc(C#CC3CC3)cc21 [compound 880] | 6.52 | 107 µL/min/mg | 71 µL/min/mg |  | 21 µM | 6.52 | IC50 [1, 11]: 0.063 µM
20 | COCC(=O)N[C@@H](Cc1cc(F)cc(F)c1)[C@H](O)CN[C@H]1CC2(CCC2)Oc2c(-c3ccncc3)cc(C3CC3)cc21 [compound 783] | 6.52 | 107 µL/min/mg | 73 µL/min/mg | 0.3 µM | 0.031 µM |  | IC50 [1, 15]: 0.029 µM
21 | COCCC(=O)N[C@@H](Cc1cccc(-c2nccs2)c1)[C@H](O)CN[C@H]1CC2(CCC2)Oc2ncc(CC(C)(C)C)cc21 [compound 791] | 7.00 | 33 µL/min/mg | 43 µL/min/mg | 0.6 µM | 0.009 µM |  | IC50 [1, 15]: 0.012 µM
22 | CC(C)(C)Cc1cnc2c(c1)[C@@H](NC[C@@H](O)[C@H](Cc1ccc(F)cc1)NC(=O)C(C)(F)F)CC1(CCC1)O2 [compound 477] | 6.52 | 337 µL/min/mg | 118 µL/min/mg |  |  | 5.49 | pIC50 [1, 13]: 6.98; pIC50 [4, 14]: 7.92
23 | COCC(=O)N[C@@H](Cc1cc(F)cc(-c2nccs2)c1)[C@H](O)CN[C@@]1(C)CC2(CCC2)Oc2ncc(CC(C)(C)C)cc21 [compound 866] | 6.70 | 90 µL/min/mg | 84 µL/min/mg |  | 0.177 µM | 6.05 | IC50 [1, 11]: 0.88 µM
24 | Cc1csc(CN2CCO[C@H](C(=O)N[C@@H](Cc3ccc(F)cc3)[C@H](O)CN[C@H]3CC4(CCC4)Oc4ncc(CC(C)(C)C)cc43)C2)n1 [compound 734] | 7.00 |  |  |  |  |  | pIC50 [1, 5]: 7.85; RLM ([2]; rat liver microsomes): 335 µL/min/mg; HLM ([3]; human liver microsomes): 543 µL/min/mg; pIC50 [4, 6]: 7.92; IC50 (CYP2D6; CYP2D6 inhibition): 2.4 µM
25 | COCC(=O)N[C@@H](Cc1cccc([C@H]2CCCO2)c1)[C@H](O)CN[C@H]1CC2(CCC2)Oc2ncc(CC(C)(C)C)cc21 [compound 916] | 6.40 | 644 µL/min/mg | 399 µL/min/mg |  | 9.5 µM | 5.09 | IC50 [1, 11]: 2.25 µM
26 | CN1CCO[C@@H](C(=O)N[C@@H](Cc2ccc(F)cc2)[C@H](O)CN[C@H]2CC3(CCC3)Oc3ncc(CC(C)(C)C)cc32)C1 [compound 739] | 6.10 |  |  |  |  |  | pIC50 [1, 5]: 8.10; RLM ([2]; rat liver microsomes): 239 µL/min/mg; HLM ([3]; human liver microsomes): 266 µL/min/mg; pIC50 [4, 6]: 7.19; IC50 (CYP2D6; CYP2D6 inhibition): 6.7 µM
27 | COCC(=O)N[C@@H](Cc1cccc(F)c1)[C@H](O)CN[C@H]1CC2(CCC2)Oc2c(-c3cscn3)cc(CC(C)C)cc21 [compound 526] | 6.22 | 503 µL/min/mg | 351 µL/min/mg | 7.3 µM |  |  | pIC50 [1, 9]: 7.28; pIC50 [4, 10]: 8.22
